Assay results from the NIST ThermoML archive (doi:10.1016/j.jct.2015.06.004).

Key:
[1] = 298.15 K; 101.33 kPa; Liquid; Vibrating tube method
[2] = excess molar enthalpy (molar enthalpy of mixing); xn = mol fraction of the nth substance listed; settings: 298.15 K, 100 kPa, Liquid, Power-compensation calorimetry

CCCC[N+]1(C)CCCC1.N#C[B-](C#N)(C#N)C#N [1-butyl-1-methylpyrrolidinium tetracyanoborate]
Settings	mass density [kg/m3]
[1]	975.61

CCCC[N+]1(C)CCCC1.N#C[B-](C#N)(C#N)C#N [1-butyl-1-methylpyrrolidinium tetracyanoborate] + CCCCO
[2]
Settings	excess molar enthalpy [kcal/mol]
x1 = 0.0149	0.0582
x1 = 0.03	0.111
x1 = 0.0449	0.159
x1 = 0.0599	0.202
x1 = 0.0749	0.242
x1 = 0.0899	0.279
x1 = 0.1049	0.313
x1 = 0.1199	0.344
x1 = 0.1349	0.373
x1 = 0.1499	0.4
x1 = 0.1649	0.425
x1 = 0.1799	0.448
x1 = 0.1949	0.469
x1 = 0.2099	0.489
x1 = 0.2248	0.507
x1 = 0.2399	0.524
x1 = 0.2549	0.539
x1 = 0.2698	0.553
x1 = 0.2849	0.565
x1 = 0.2999	0.576
x1 = 0.4828	0.591
x1 = 0.5199	0.579
x1 = 0.557	0.561
x1 = 0.5941	0.537
x1 = 0.631	0.508
x1 = 0.6681	0.474
x1 = 0.7049	0.435
x1 = 0.7419	0.392
x1 = 0.7789	0.346
x1 = 0.8157	0.295
x1 = 0.8525	0.242
x1 = 0.8892	0.186
x1 = 0.9262	0.126
x1 = 0.9632	0.0638

CCCC[N+]1(C)CCCC1.N#C[B-](C#N)(C#N)C#N [1-butyl-1-methylpyrrolidinium tetracyanoborate] + CCCO
[2]
Settings	excess molar enthalpy [kcal/mol]
x1 = 0.014	0.0518
x1 = 0.028	0.0994
x1 = 0.042	0.143
x1 = 0.056	0.183
x1 = 0.07	0.22
x1 = 0.084	0.255
x1 = 0.098	0.287
x1 = 0.112	0.317
x1 = 0.126	0.345
x1 = 0.1399	0.37
x1 = 0.1539	0.394
x1 = 0.168	0.417
x1 = 0.1819	0.437
x1 = 0.1959	0.456
x1 = 0.21	0.474
x1 = 0.224	0.49
x1 = 0.2257	0.484
x1 = 0.238	0.504
x1 = 0.252	0.518
x1 = 0.2592	0.522
x1 = 0.264	0.528
x1 = 0.2983	0.553
x1 = 0.3374	0.573
x1 = 0.3765	0.584
x1 = 0.4156	0.588
x1 = 0.4547	0.584
x1 = 0.4938	0.573
x1 = 0.5329	0.556
x1 = 0.572	0.533
x1 = 0.611	0.505
x1 = 0.65	0.471
x1 = 0.6891	0.433
x1 = 0.7282	0.39
x1 = 0.7672	0.343
x1 = 0.8062	0.292
x1 = 0.8451	0.238
x1 = 0.8839	0.18
x1 = 0.9228	0.119
x1 = 0.9615	0.0556

CCCC[N+]1(C)CCCC1.N#C[B-](C#N)(C#N)C#N [1-butyl-1-methylpyrrolidinium tetracyanoborate] + CCO
[2]
Settings	excess molar enthalpy [kcal/mol]
x1 = 0.0134	0.0375
x1 = 0.0268	0.0729
x1 = 0.0402	0.107
x1 = 0.0537	0.14
x1 = 0.0672	0.171
x1 = 0.0808	0.201
x1 = 0.0948	0.23
x1 = 0.1088	0.257
x1 = 0.1228	0.283
x1 = 0.1368	0.307
x1 = 0.1509	0.329
x1 = 0.1511	0.334
x1 = 0.165	0.35
x1 = 0.1652	0.355
x1 = 0.1792	0.369
x1 = 0.1902	0.389
x1 = 0.1933	0.387
x1 = 0.2067	0.403
x1 = 0.2202	0.424
x1 = 0.2403	0.444
x1 = 0.2803	0.477
x1 = 0.3203	0.501
x1 = 0.3604	0.517
x1 = 0.4005	0.525
x1 = 0.4406	0.527
x1 = 0.4806	0.521
x1 = 0.5206	0.51
x1 = 0.5607	0.492
x1 = 0.6007	0.47
x1 = 0.6408	0.441
x1 = 0.6807	0.408
x1 = 0.7203	0.371
x1 = 0.7604	0.328
x1 = 0.8002	0.282
x1 = 0.8402	0.232
x1 = 0.8802	0.178
x1 = 0.9201	0.121
x1 = 0.96	0.0612

CCCC[N+]1(C)CCCC1.N#C[B-](C#N)(C#N)C#N [1-butyl-1-methylpyrrolidinium tetracyanoborate] + CO
[2]
Settings	excess molar enthalpy [kcal/mol]
x1 = 0.013	0.0258
x1 = 0.026	0.0519
x1 = 0.039	0.0782
x1 = 0.052	0.104
x1 = 0.065	0.129
x1 = 0.078	0.153
x1 = 0.091	0.176
x1 = 0.104	0.197
x1 = 0.117	0.218
x1 = 0.13	0.237
x1 = 0.1362	0.255
x1 = 0.143	0.254
x1 = 0.156	0.271
x1 = 0.1602	0.288
x1 = 0.169	0.287
x1 = 0.1775	0.297
x1 = 0.2003	0.334
x1 = 0.2404	0.37
x1 = 0.2805	0.399
x1 = 0.3207	0.419
x1 = 0.3608	0.432
x1 = 0.4009	0.439
x1 = 0.441	0.439
x1 = 0.4812	0.434
x1 = 0.5213	0.423
x1 = 0.5615	0.407
x1 = 0.6016	0.386
x1 = 0.6416	0.361
x1 = 0.6816	0.331
x1 = 0.7217	0.298
x1 = 0.7616	0.261
x1 = 0.8015	0.221
x1 = 0.8414	0.177
x1 = 0.8814	0.13
x1 = 0.9213	0.0811
x1 = 0.9606	0.0317
